Measured values from patent publication US7202265B2, “Indolinone combinatorial libraries and related products and methods for the treatment of disease” (Sugen, Inc., priority 1997, dated 2007).
Where two headings read alike, the source gives them in different places.

Tests used:
human MET = assay: MET biochemical kinase assay; design: concentration or dose not given beside the values
How it was run: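 MET captured from cell lysates onto plates coated with goat anti-rabbit Fc plus rabbit polyclonal anti-MET cytoplasmic-domain antibody; after washing, compounds added with kinase buffer containing ATP and divalent metal ions. Receptor tyrosine phosphorylation detected by HRP-conjugated anti-phosphotyrosine antibody, TMB colorimetric read-out.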

FLK-1 receptor = target: T1, FLK-1 receptor (Mus musculus, UniProt P35918); assay: FLK-1 ELISA (catalytic activity of the FLK-1 receptor in FLK-1/NIH3T3 cells); format: cell-based; design: Flk Kinase % Inhibition: concentration or dose not given beside the values
T1 construct: expressed in transfected cells; host or cells: NIH3T3 C7#3 (FLK-1/NIH3T3)
T1 sequence (P35918 20-1345): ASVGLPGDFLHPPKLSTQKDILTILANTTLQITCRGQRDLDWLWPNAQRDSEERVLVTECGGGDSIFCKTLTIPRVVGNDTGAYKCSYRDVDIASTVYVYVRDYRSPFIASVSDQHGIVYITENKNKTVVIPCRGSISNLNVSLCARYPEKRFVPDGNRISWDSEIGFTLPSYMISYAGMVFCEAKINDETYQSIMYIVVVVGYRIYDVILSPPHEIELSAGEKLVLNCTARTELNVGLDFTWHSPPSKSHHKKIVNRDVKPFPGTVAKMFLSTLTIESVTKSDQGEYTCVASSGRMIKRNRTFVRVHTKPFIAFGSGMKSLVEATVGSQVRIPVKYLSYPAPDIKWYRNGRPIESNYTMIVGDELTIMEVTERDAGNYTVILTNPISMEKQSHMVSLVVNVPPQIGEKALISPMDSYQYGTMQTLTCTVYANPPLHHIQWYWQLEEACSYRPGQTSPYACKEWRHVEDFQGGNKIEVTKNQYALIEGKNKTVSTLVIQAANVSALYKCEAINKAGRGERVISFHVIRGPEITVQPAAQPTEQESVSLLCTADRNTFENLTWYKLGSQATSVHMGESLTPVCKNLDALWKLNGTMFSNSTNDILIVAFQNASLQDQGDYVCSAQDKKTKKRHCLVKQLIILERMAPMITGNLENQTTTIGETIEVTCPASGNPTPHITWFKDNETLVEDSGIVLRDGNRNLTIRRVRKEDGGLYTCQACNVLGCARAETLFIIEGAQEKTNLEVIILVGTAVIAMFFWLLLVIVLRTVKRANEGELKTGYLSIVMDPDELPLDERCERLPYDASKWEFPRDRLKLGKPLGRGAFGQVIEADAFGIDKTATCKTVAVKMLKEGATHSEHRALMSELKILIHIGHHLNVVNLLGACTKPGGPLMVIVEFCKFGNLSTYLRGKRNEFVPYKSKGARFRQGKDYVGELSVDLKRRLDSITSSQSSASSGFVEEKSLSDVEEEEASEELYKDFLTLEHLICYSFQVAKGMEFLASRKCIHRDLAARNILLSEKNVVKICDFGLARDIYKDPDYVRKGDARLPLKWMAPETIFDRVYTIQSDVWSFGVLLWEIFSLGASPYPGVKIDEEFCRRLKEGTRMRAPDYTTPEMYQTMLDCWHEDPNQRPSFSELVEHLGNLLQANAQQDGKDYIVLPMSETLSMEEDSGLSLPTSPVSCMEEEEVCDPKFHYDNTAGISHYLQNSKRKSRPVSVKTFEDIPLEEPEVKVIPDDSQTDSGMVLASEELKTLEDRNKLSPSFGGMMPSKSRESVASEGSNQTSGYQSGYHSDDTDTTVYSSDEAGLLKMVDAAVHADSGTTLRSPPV

EGFR = target: T2, EGFR (Homo sapiens, UniProt P00533); assay: EGFR ELISA assay (in vitro kinase activity, A431 cell lysate); format: biochemical; design: concentration or dose not given beside the values
T2 construct: Add 7 ug A431 cell lysate per well (EGFR source); endogenous in cells; host or cells: A431 cells (lysate)
T2 sequence (P00533 25-1210): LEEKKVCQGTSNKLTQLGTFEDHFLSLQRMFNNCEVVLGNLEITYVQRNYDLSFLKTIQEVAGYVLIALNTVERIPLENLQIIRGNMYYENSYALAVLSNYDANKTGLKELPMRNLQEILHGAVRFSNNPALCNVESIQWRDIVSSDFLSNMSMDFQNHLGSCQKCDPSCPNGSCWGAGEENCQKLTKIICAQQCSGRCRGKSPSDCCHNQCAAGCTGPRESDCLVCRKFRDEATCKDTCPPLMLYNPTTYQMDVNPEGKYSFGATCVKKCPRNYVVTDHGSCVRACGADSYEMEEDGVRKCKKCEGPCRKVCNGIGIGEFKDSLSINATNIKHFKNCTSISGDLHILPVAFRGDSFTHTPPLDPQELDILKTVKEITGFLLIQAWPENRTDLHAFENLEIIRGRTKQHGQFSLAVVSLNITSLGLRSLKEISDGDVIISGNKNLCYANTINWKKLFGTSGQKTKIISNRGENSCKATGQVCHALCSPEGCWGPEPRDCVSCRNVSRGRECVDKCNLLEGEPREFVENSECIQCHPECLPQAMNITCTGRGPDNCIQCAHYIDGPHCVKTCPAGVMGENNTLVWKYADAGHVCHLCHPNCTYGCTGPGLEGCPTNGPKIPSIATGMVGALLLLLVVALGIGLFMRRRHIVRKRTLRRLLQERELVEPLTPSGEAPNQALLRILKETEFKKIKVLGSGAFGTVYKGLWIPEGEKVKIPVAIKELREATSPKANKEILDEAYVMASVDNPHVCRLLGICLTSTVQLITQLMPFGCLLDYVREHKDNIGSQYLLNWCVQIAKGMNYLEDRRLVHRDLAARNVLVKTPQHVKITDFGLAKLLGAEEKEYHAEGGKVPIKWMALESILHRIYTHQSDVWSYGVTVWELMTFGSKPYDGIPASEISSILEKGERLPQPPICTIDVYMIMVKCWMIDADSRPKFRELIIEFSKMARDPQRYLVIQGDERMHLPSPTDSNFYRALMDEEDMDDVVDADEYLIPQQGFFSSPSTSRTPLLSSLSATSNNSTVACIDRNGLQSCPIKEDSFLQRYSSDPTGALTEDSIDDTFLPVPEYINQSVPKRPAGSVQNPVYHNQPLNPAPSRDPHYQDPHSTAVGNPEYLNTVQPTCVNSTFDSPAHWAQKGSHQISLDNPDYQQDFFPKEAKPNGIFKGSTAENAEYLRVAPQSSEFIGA
Description: To provide a consistent method for measuring the in vitro kinase activity of the EGFR in an Enzyme-linked immunosorbent assay (Elisa).
Scope. The following protocol describes the procedures used to analyze protein tyrosine kinase activity on the EGFR in an Elisa. The procedure also describes the protocol for the initial screening of drugs for inhibition or activation of protein tyrosine kinase activity.
1. Coat Corning 96-well elisa plates with 0.5 ug per well 05-101 antibody. • Bring final volume to 100 ul per well with PBS. • Coat plates overnight at […].
2. Remove unbound 05-101 from wells by inverting plate to remove liquid. • Wash 1× with distilled H2O by filling wells • Pat the plate on a paper towel to remove excess liquid.
3. Block plates with 5% milk in PBS. • 150 ul per well. • Incubate plate 30 minutes while shaking on a microtiter plate shaker.
4. Wash plate 3× with dionized water, then once with TBST
5. Add 7 ug A431 cell lysate per well (EGFR source). • Add PBS to final volume of 100 ul per well • Incubate 30 minutes while shaking.
6. Wash as described in step 4.
8. […] It is best to add the ATP/MnCl2 with an 12 channel pipettor 1 row at a time leaving 20 seconds between each row so that the reaction may be stopped with EDTA exactly 5 minutes later (this depends on the number of plates being phosphorylated in one batch). Shake between each addition.
9. After 5 minutes, to stop reaction, add 16.5 ul of 200 mM EDTA pH 8.0 for 20 mM final in well, shaking continuously between each addition. This is done using the same timing method as above. After last row has received EDTA, shake plate an additional minute.
10. Wash 4× with deionized water, twice with TBST.
11. Add rabbit polyclonal anti-phosphotyrosine serum. • Dilute 1:3000 in TBST. • Add 100 ul per well. • Incubate 30–45 minutes while shaking.
12. Wash as described above in step 4.
13. Add BioSource anti-rabbit peroxidase conjugate antibody. • Dilute 1:2000 in TBST. • Add 100 ul per well. • Incubate 30 minutes while shaking.
14. Wash as described in step 4.
15. Add 100 ul of ABTS/H2O2 solution to well. • Incubate 5 to 10 minutes while shaking. • Remove bubbles
16. If necessary stop reaction with the addition of 100 ul of 0.2M HCl per well
17. Read assay on Dynatech MR7000 elisa reader. • Test Filter: 410 nM • Reference Filter: 630 nM

[1] = target: platelet derived growth factor protein kinase (PDGFR) (Homo sapiens, UniProt P09619); assay: PDGF-R ELISA; format: cell-based; design: concentration or dose not given beside the values
Chain of platelet derived growth factor protein kinase (PDGFR) (P09619 33-1106): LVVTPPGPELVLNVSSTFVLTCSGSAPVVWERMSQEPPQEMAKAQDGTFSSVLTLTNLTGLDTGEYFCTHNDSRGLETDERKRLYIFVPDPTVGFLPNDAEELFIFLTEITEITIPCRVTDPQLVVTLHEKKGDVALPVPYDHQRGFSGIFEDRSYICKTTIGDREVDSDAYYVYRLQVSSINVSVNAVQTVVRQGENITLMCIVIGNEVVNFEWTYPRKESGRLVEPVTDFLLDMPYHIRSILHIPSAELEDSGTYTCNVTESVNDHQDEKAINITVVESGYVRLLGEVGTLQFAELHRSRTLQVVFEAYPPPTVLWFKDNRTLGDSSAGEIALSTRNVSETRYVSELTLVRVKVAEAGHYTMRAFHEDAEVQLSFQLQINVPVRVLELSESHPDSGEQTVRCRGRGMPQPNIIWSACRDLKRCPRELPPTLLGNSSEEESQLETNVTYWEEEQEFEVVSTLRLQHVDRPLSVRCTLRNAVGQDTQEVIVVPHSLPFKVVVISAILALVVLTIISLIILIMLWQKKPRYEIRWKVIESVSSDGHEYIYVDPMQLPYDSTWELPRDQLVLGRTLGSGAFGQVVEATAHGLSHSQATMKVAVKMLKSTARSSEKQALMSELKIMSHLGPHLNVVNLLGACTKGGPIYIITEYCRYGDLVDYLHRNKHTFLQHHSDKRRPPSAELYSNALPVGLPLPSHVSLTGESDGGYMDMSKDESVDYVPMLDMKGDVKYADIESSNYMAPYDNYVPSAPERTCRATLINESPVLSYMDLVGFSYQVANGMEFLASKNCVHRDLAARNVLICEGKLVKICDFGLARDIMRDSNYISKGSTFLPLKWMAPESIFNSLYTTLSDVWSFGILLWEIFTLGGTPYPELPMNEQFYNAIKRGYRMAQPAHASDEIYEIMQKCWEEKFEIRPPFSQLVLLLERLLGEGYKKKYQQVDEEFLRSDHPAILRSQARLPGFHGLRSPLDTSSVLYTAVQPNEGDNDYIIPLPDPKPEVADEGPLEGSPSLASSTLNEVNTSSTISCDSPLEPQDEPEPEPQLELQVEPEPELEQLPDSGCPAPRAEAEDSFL
From the text: A PDGF-R ELISA is described in International Patent Publication No. WO 96/40116, published Dec. 19, 1996 by Tang et al.

[2] = Table 10, read-out: FLK Kinase IC50
[3] = Table 7, read-out: Activity 1C50 FLK Kinase
[4] = Table 2, read-out: FLK Kinase IC50
[5] = Table 6, read-out: FLK Kinase IC50

SMILES | Met Kinase % Inhibition (human MET) | Flk Kinase % Inhibition (FLK-1 receptor) | Biochem EGFR % Inhibition (EGFR) | IC50 (FLK-1 receptor; [2]) | further results
CCOC(=O)CCc1c(C(=O)OCC)[nH]c(C=C2C(=O)Nc3ccc(I)cc32)c1CC(=O)OCC [10718/B05] | 76.0% | 11.5% | 56.3% | – | –
O=C1Nc2ccc(I)cc2C1=Cc1csc([N+](=O)[O-])c1 [10722/B09] | 59.7% | 8.7% | 7.8% | – | PDGF Kinase % Inhibition [1]: 14.6%
Cc1ccc(C=C2C(=O)Nc3ccc(I)cc32)o1 [10725/B04] | 90.4% | 1.1% | 76.9% | – | PDGF Kinase % Inhibition [1]: 9.3%
Cc1ccc(C=C2C(=O)Nc3c(Br)cc(Br)cc32)o1 [10725/A04] | 55.3% | −8.6% | 26.2% | – | PDGF Kinase % Inhibition [1]: −3.2%
O=C1Nc2ccc(I)cc2C1=Cc1cc([N+](=O)[O-])cc(CCl)c1O [10721/B06] | 92.4% | 3.4% | 71.5% | – | –
CNS(=O)(=O)c1ccc2c(c1)C(=Cc1cccc(C#N)c1)C(=O)N2 [10727/D08] | 8.5% | – | – | – | PDGF Kinase % Inhibition [1]: 5.0%
COc1c(I)cc(C=C2C(=O)Nc3ccc(S(=O)(=O)N4CCOCC4)cc32)cc1C(C)(C)C [10732/F11] | 65.1% | 14.1% | – | – | –
O=C1Nc2ccc(I)cc2C1=Cc1ccc([N+](=O)[O-])c(O)c1 [10724/B04] | 81.2% | −20.5% | 50.2% | – | PDGF Kinase % Inhibition [1]: 42.5%
Cn1cc(Cl)c(C=C2C(=O)Nc3ccc(I)cc32)n1 [10721/B03] | 70.8% | 19.9% | 38.9% | – | –
CNS(=O)(=O)c1ccc2c(c1)C(=Cc1c(OC)ccc3ccccc13)C(=O)N2 [10729/D02] | – | – | 5.7% | – | –
Cn1c(C=C2C(=O)Nc3ccc(I)cc32)nc2ccccc21 [10721/B02] | 82.6% | 19.5% | 58.6% | – | –
CCc1ccc(/C=C2\C(=O)Nc3ccccc32)cc1 | – | – | – | 20.3 µM | –
O=C1Nc2ccc(Br)cc2/C1=C\c1cc2c([nH]1)CCCC2 [compound 0129] | – | – | – | – | IC50 (FLK-1 receptor; [3]): 19.6 µM
Cn1cc(/C=C2\C(=O)Nc3ccc(N)cc32)c2ccccc21 | – | – | – | – | IC50 (FLK-1 receptor; [4]): 2.5 µM
O=C1Nc2ccccc2/C1=C\c1cc2c([nH]1)CCCC2 [compound 0128] | – | – | – | – | IC50 (FLK-1 receptor; [3]): 1.7 µM
Cc1cc(Cl)cc2c1NC(=O)/C2=C\c1cc(O)c(O)c(Br)c1 | – | – | – | 18.5 µM | –
O=C1Nc2ccc(I)cc2C1=Cc1ccc(Cl)s1 [10721/B07] | 47.1% | 11.2% | 47.6% | – | –
O=C1Nc2ccc(Cl)cc2/C1=C/c1ccc(N2CCCC2)cc1 | – | – | – | 12.3 µM | –
Cc1ccc(/C=C2\C(=O)Nc3ccc(C(=O)O)cc32)s1 | – | – | – | – | Activity EC200 (FLK-1 receptor; Table 8): ActivityEC200 = 46 μm
CC(C)(C)c1ccc(/C=C2\C(=O)Nc3ccccc32)cc1 | – | – | – | 9.7 µM | –
Nc1ccc2c(c1)/C(=C/c1cc3c([nH]1)CCCC3)C(=O)N2 | – | – | – | – | IC50 (FLK-1 receptor; [5]): 1.2 µM

SMILES | Met Kinase % Inhibition (human MET) | Flk Kinase % Inhibition (FLK-1 receptor) | Biochem EGFR % Inhibition (EGFR) | IC50 (FLK-1 receptor; [2]) | further results
Cc1cc(C=C2C(=O)Nc3ccc(I)cc32)cc(C)c1O [10722/B07] | 48.2% | 6.6% | 6.2% | – | PDGF Kinase % Inhibition [1]: 20.9%
O=C1Nc2ccc(I)cc2C1=Cc1ccc2c(c1)Cc1ccccc1-2 [10728/B06] | 56.0% | 4.7% | 38.1% | – | PDGF Kinase % Inhibition [1]: 7.6%
CN(C)CCCOc1ccc(/C=C2\C(=O)Nc3ccc(Cl)cc32)cc1 | – | – | – | 11.5 µM | –
CN(C)CCCOc1ccc(/C=C2\C(=O)Nc3ccc(N)cc32)cc1 | – | – | – | 13.7 µM | –
O=C1Nc2ccccc2/C1=C/c1cc2c([nH]1)CCCC2 | – | – | – | – | IC50 (FLK-1 receptor; [5]): 1.4 µM
O=C1Nc2ccc(Cl)cc2/C1=C/c1ccc(O)c(Br)c1 | – | – | – | 5.2 µM | –
COC(=O)CCc1c[nH]c(/C=C2\C(=O)Nc3ccc(N)cc32)c1C | – | – | – | 4.7 µM | –
CCc1cc(CC)c(/C=C2\C(=O)Nc3ccccc32)[nH]1 | – | – | – | 8.1 µM | –
O=CN1CCN(c2ccc(/C=C3\C(=O)Nc4ccc(Cl)cc43)cc2)CC1 | – | – | – | 5.8 µM | –
Cc1cc(C=C2C(=O)Nc3ccc(I)cc32)sc1C [10721/B04] | 93.1% | 13.8% | 79.3% | – | –
Cc1cc(C)c2c(c1)NC(=O)/C2=C\c1c[nH]cn1 | – | – | – | 4.6 µM | –
COc1ccc(OC)c(/C=C2\C(=O)Nc3cccc(C)c32)c1 | – | – | – | 10.4 µM | –
CCOC(=O)c1c(C)c(/C=C2\C(=O)Nc3ccccc32)n(C)c1C | – | – | – | 0.97 µM | –
O=C1Nc2ccc(I)cc2C1=Cc1cc2c3c(c1O)CCCN3CCC2 [10724/B05] | 45.6% | −2.2% | 21.2% | – | PDGF Kinase % Inhibition [1]: 12.6%
CN(C)c1ccc(C=C2C(=O)Nc3ccc(I)cc32)c2ccccc12 [10724/B02] | 48.8% | −6.2% | 34.9% | – | PDGF Kinase % Inhibition [1]: −21.5%
CCc1cc(CC)c(/C=C2\C(=O)Nc3ccc(N)cc32)[nH]1 | – | – | – | 5.6 µM | –
COc1cccc(O)c1C=C1C(=O)Nc2ccc(S(=O)(=O)N3CCOCC3)cc21 [10717/F10] | – | −4.4% | – | – | –
Cn1cc(/C=C2\C(=O)Nc3ccc(F)cc32)c2ccccc21 | – | – | – | – | IC50 (FLK-1 receptor; [4]): 14 µM
O=CN1CCN(c2ccc(/C=C3\C(=O)Nc4ccccc43)cc2)CC1 | – | – | – | 6.2 µM | –
COc1cc2c(cc1OC)/C(=C/c1coc3ccc(C(C)C)cc3c1=O)C(=O)N2 | – | – | – | 17.1 µM | –
CNS(=O)(=O)c1ccc2c(c1)C(=Cc1ccc(F)cc1C(F)(F)F)C(=O)N2 [10719/D11] | 12.8% | −8.7% | −11.1% | – | –
